Laboratory results as given in patent US20230390176A1, “Cosmetic Skin and Medical Cream” (Protecta-Skincare, Inc., priority 2021, published 2023).

How the values were obtained:
[1] = disclosed in U.S. Pat. No. 9,045,474; cited from earlier work
human keratinocytes = assay: lifespan of human keratinocytes with YEL002; assay type: cell-based; settings: application of the active ingredient YEL002

COc1ccc2cc(-c3nc4ccc(C)cn4c3NCc3ccco3)c(=O)[nH]c2c1 [YEL002]
mitigating tissue damage induced by an agent [1]: effective in mitigating tissue damage | human keratinocytes live longer (anti-aging) (human keratinocytes): 15%
